# Assay results reported in patent US8366933B2, “Method for bacterial treatment of effluents containing 2-ethylhexyl nitrate” (Commissariat a l'Energie Atomique, priority 2007, dated 2013).
# Assays:
# zebrafish = conditions: acute toxicity; cited from earlier work
# [1] = system: C. urealyticum CIP-I-2126 strain; experiment: 2-EHN degradation with a non-biodegradable hydrophobic liquid phase (respirometer); type: cell-based, Corynebacterium urealyticum; conditions: per flask containing 500 mL medium at 500 mg/L 2-EHN
# Experimental: The capacity for degradation of 2-EHN by the C. urealyticum CIP-I-2126 strain in the presence of a non-biodegradable hydrophobic liquid phase used as a substrate reservoir is studied. The cultures were carried out at 30° C. with a respirometer so as to determine the kinetic characteristics of the biodegradation.
# Two non-biodegradable liquid phases were tested: 2,2,4,4,6,8,8-heptamethylnonane (HMN) and silicone oil (Table 3).
# [2] = cited from earlier work
# [3] = cited from earlier work; remark: listed apart in the source
# Daphnia = conditions: acute toxicity; cited from earlier work
compound,measurement,setting,value
"CCCCC(CC)CO[N+](=O)[O-] (stereo not shown) [2-EHN, 2-ethylhexyl nitrate]",LC50 (50% lethal concentrations),zebrafish,higher than its water solubility
same,MAXIMUM DEGRADATION RATE (MMOLO2/J),[1]; liquid phase added: HMN,5.3 MMOLO2/J
same,MAXIMUM DEGRADATION RATE (MMOLO2/J),[1]; liquid phase added: Silicone oil,5.8 MMOLO2/J
same,MAXIMUM DEGRADATION RATE (MMOLO2/J),[1]; liquid phase added: none,0.3 MMOLO2/J
same,Solubility at 20° C.,[2],12.6 µg/mL
same,Vapour pressure at 20° C.,[3],27 Pa
same,LC50 (50% lethal concentrations),Daphnia,higher than its water solubility
